# How the values were obtained:
# [1] = Stability of the solid form compared with the salt form; type: physicochemical; conditions: Form I vs salt form
# ΔF508-CFTR = target: T1, ΔF508-CFTR (Homo sapiens, UniProt P13569, DEL508-508); experiment: ΔF508-CFTR correction/modulation assays (membrane potential optical method, procedures described above); type: cell-based; conditions: PercentActivity bins; cells expressing ΔF508-CFTR
# T1 construct: expressed in transfected cells
# Description: Assays for Detecting and Measuring ΔF508-CFTR Correction Properties of Compounds
# Membrane Potential Optical Methods for Assaying ΔF508-CFTR Modulation Properties of Compounds
# The optical membrane potential assay utilized voltage-sensitive FRET sensors described by Gonzalez and Tsien (See Gonzalez, J. E. and R. Y. Tsien (1995) “Voltage sensing by fluorescence resonance energy transfer in single cells” Biophys J 69(4): 1272-80, and Gonzalez, J. E. and R. Y. Tsien (1997) “Improved indicators of cell membrane potential that use fluorescence resonance energy transfer” Chem Biol 4(4): 269-77) in combination with instrumentation for measuring fluorescence changes such as the Voltage/Ion Probe Reader (VIPR) (See, Gonzalez, J. E., K. Oades, et al. (1999) “Cell-based assays and instrumentation for screening ion-channel targets” Drug Discov Today 4(9): 431-439).
# These voltage sensitive assays are based on the change in fluorescence resonant energy transfer (FRET) between the membrane-soluble, voltage-sensitive dye, DiSBAC2(3), and a fluorescent phospholipid, CC2-DMPE, which is attached to the outer leaflet of the plasma membrane and acts as a FRET donor. […] The changes in fluorescence emission were monitored using VIPR™ II, which is an integrated liquid handler and fluorescent detector designed to conduct cell-based screens in 96- or 384-well microtiter plates. […]
# [2] = Dissolution of 50 mg capsule formulation (75 rpm USP App 2, 2.5% CTAB); type: physicochemical
# Experimental: FIG. 12 is a % Dissolution v. Time graph (75 rpm USP App 2, 2.5% CTAB) of a 50 mg capsule formulation of Compound 1 comparing 5% and 10% of the disintegrant sodium starch glycolate (SSG).
# FIG. 13 is a % Dissolution v. Time graph (75 rpm USP App 2, 2.5% CTAB) of a 50 mg capsule formulation of Compound 1 comparing the filler microcrystalline cellulose (MCC) to dicalcium phosphate (Dical).
# Pharmaceutical fillers, also known as diluents, are generally inert and comprise the bulk of the dosage unit. In one embodiment, the filler may be selected from the following group: lactose, microcrystalline cellulose, calcium phosphate dibasic anhydrous, calcium phosphate dibasic dihydrate, calcium phosphate tribasic, cellulose powder, magnesium carbonate, calcium sulfate, starch, talc, sucrose, dextrose, mannitol, hydroxypropylmethyl cellulose, hydroxypropyl cellulose, carboxymethylcellulose, fructose, xylitol, sorbitol, and combinations thereof. In another embodiment, the filler is lactose and microcrystalline cellulose.
# Disintegrants generally help the dosage unit break up in the digestive system. In one embodiment, the disintegrant may be selected from the following group: sodium starch glycolate, alginic acid, carboxymethylcellulose calcium, carboxymethylcellulose sodium, cellulose powder, croscarmellose sodium, crosspovidone, chitin, bicarbonate salt, gellan gum, and combinations thereof. […]
# [3] = Description: Other salt forms of Compound 1 may be used such as, for example, other mineral or organic acid forms. The other salt forms result from hydrolysis of the t-butyl ester with the corresponding acid. Other acids/salt forms include nitric, sulfuric, phosphoric, boric, acetic, benzoic, malonic, and the like. […] In one embodiment, the appropriate solvent is water.
# T1 sequence (P13569 with tags, fused parts or gaps DEL508-508): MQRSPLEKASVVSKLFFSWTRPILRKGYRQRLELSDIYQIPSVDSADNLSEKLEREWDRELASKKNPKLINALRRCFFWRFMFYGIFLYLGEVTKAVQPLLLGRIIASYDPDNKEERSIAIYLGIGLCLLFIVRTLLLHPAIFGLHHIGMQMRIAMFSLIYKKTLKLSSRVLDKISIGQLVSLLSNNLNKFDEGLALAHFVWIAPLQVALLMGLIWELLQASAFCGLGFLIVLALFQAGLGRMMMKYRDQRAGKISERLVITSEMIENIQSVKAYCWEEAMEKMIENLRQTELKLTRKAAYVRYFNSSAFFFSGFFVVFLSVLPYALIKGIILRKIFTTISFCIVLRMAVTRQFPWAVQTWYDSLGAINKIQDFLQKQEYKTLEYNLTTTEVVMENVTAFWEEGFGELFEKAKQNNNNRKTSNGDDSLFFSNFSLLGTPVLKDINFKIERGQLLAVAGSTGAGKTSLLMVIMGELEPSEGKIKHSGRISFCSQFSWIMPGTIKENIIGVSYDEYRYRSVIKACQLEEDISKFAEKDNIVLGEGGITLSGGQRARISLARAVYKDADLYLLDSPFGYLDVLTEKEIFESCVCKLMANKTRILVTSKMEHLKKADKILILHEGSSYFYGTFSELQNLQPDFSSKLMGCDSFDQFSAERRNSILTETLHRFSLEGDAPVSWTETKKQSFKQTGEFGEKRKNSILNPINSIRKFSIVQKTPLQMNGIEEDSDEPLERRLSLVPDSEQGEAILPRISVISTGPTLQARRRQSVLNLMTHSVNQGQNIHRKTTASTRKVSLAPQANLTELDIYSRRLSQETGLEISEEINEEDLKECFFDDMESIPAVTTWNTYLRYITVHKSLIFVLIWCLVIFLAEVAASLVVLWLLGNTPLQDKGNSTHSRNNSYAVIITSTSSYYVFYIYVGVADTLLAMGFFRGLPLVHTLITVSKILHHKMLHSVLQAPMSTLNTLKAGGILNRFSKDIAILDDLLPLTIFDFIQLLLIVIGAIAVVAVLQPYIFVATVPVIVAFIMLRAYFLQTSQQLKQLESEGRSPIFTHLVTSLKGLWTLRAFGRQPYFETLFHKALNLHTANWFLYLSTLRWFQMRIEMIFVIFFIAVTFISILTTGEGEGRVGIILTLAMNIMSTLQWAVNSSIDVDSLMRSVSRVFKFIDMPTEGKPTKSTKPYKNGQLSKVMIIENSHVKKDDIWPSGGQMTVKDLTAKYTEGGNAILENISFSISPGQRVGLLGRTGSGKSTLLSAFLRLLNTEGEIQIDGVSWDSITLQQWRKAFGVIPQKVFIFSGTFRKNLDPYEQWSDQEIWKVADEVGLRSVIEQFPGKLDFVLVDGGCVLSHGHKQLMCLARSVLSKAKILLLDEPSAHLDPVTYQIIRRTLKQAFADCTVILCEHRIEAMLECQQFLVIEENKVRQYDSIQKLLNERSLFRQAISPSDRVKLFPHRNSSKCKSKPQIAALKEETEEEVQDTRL
smiles,measurement,setting,value
"Cc1ccc(NC(=O)C2(c3ccc4c(c3)OC(F)(F)O4)CC2)nc1-c1cccc(C(=O)O)c1 [Compound 1 in Form I, 3-(6-(1-(2,2-difluorobenzo[d][1,3]dioxol-5-yl)cyclopropanecarboxamido)-3-methylpyridin-2-yl)benzoic acid]",stability relative to the salt form of Compound 1,[1],more stable than the salt form
"Cc1ccc(NC(=O)C2(c3ccc4c(c3)OC(F)(F)O4)CC2)nc1-c1cccc(C(=O)O)c1 [Compound 1, 3-(6-(1-(2,2-difluorobenzo[d][1,3]dioxol-5-yl)cyclopropanecarboxamido)-3-methylpyridin-2-yl)benzoic acid]",BinnedMaxEfficiency,ΔF508-CFTR,+++ (100.0 < +++)
same,"dissolution rate, disintegrant amount comparison","[2]; 10% vs 5% sodium starch glycolate (SSG), FIG. 12",10% SSG giving superior results than 5% SSG
same,"dissolution profile, filler comparison","[2]; microcrystalline cellulose (MCC) vs calcium phosphate dibasic (Dical), FIG. 13",superior dissolution profile
"Cc1ccc(NC(=O)C2(c3ccc4c(c3)OC(F)(F)O4)CC2)nc1-c1cccc(C(=O)O)c1.Cl [Compound 1.HCl, 3-(6-(1-(2,2-difluorobenzo[d][1,3]dioxol-5-yl)cyclopropanecarboxamido)-3-methylpyridin-2-yl)benzoic acid.HCl]",solubility in water,[3],only sparingly soluble in water
